Results reported in patent publication US4855303A, “Fluorine containing renin inhibitors” (Pfizer Inc., priority 1988, dated 1989).

Target: T1, renin (Homo sapiens, UniProt P00797)
T1 sequence (P00797 67-406): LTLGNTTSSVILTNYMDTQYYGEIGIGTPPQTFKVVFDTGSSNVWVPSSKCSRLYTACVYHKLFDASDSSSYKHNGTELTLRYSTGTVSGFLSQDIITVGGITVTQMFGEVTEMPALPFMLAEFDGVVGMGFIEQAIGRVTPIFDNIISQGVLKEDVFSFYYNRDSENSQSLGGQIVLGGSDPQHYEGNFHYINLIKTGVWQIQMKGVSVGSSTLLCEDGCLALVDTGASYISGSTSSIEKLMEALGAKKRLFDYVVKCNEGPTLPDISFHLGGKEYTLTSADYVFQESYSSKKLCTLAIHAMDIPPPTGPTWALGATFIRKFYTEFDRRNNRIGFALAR
Test: renin inhibitory potency
Assay type: biochemical
Conditions: 2S,5S product compared with the 2R,5R isomer separated by HPLC
Excerpt: The activity of the compounds of the present invention as inhibitors of the angiotensinogen-cleaving activity of renin may be determined by studying (1) their ability to inhibit the angiotensinogen-cleaving activity of renin in vitro and (2) their ability to antagonize the exogenous renin-induced pressor response in vivo.

renin inhibitory potency: more active
SMILES: CCCC[C@H](NC(=O)[C@H](Cc1ccccc1)NC(=O)N1CCOCC1)C(=O)N[C@@H](CC1CCCCC1)C(=O)C(F)(F)[C@@H](CC(C)C)C(=O)OCC [Example 10, Ethyl (2S,5S)-2-isobutyl-3,3-difluoro-4-keto-5-N-(N-[morpholinocarbonyl-L-phenylalanyl]-L-norleucyl)-amino-6-cyclohexylhexanoate]
